# Measurements as given in patent publication US12624350B2, “High-throughput single-nuclei and single-cell libraries and methods of making and of using” (ILLUMINA, INC., priority 2019, dated 2026).
# System: HEK293T cells
# Assay: flavopiridol time course, sci-RNA-seq with hash ladder
# Type: cell-based, human
# Conditions: 300 nM, longest exposure times
# Description: For the flavopiridol time course experiment, HEK293T cells were seeded onto a 6-well culture plate at a density of 4×10^5 cells per well. For the HDAC inhibitor time course and HDAC inhibitor and Dexamethasone co-treatment experiments, A549 cells were seeded onto a 96-well culture plate at a density of 2.5×10^4 cells per well.
# The cells were grown for 24 hours after they were seeded onto the cell culture plates. For the flavopiridol time course experiment, 0.9 uL of 1 mM flavopiridol was added to each 6 well to attain final concentration of 300 nM. […]
# The capture of hash ladder by nuclei is determined by factors including, but not limited to, sample processing and sequencing depth. […] We empirically determined that the ladder should be constructed so that around 6 million hash molecules are captured per nuclei (assuming that each nucleus takes up equal amount of hash molecules in the solution) to obtain a median hash UMI count of 1,000-5,000. […]
# For the harvest of cells, media was removed and cells were washed with DPBS and dissociated off the plate using trypLE. […] Cells were then counted with a hemocytometer using 0.4% Trypan Blue. […]
# Isolated and hashed nuclei were then permeabilized in permeabilization buffer (0.25% Triton-X in NSB) for 3 minutes on ice and then spun down. […] Cell counts were obtained by staining nuclei with 0.4% Trypan Blue (Sigma-Aldrich) and counted using a hemocytometer. […]
smiles,measurement,value
CN1CC[C@H](c2c(O)cc(O)c3c(=O)cc(-c4ccccc4Cl)oc23)[C@H](O)C1 [flavopiridol],RNA recovery per-cell (total RNA UMI counts),greatest reduction in RNA recovery per-cell
